From US7202239B2, “Cyclohexylphenyl carboxamides tocolytic oxytocin receptor antagonists” (Wyeth, priority 2001, dated 2007)

Key:
[1] = molecular target: human vasopressin V1a receptor subtype (Homo sapiens, UniProt P37288); assay: Vasopressin binding in CHO cell membranes expressing human vasopressin V1a subtype receptors; conditions: [3H]Manning ligand; for inhibition at 0.1 µM: 100 nM; for IC50: value in parentheses
From the text: Vasopressin Binding in Chinese Hamster Ovary Cell Membranes Expressing Human Vasopressin V1a Subtype Receptors
Chinese hamster ovary cells (CHO cells) stably transfected with the human vasopressin V1a subtype receptors were either obtained from Biosignal Inc., 1744 rue Williams, Montreal, Quebec, Canada or obtained from M. Thibonnier, Case Western Reserve University School of Medicine, Cleveland, Ohio. A. Passaging and Amplification of Cells: CHO cells transfected with the human vasopressin V1a subtype receptors obtained from M. Thibonnier (pZeoSV vector) are allowed to grow to confluency (approx. >90%) in T-150 flasks under sterile conditions, in a cell culture medium of F-12 Nutrient Mixture (HAM) with L-glutamine (Gibco Cat. # 11765-054) containing 15 mM HEPES (Gibco Cat. 15630-080), 1% antibiotic/antimycotic (add 5 mL 100×, Gibco Cat. 15240-062 per 500 mL F-12), 250 μg/mL Zeocin (add 1.25 mL of 100 mg/mL Invitrogen R-250-01 per 500 mL F-12) and 10% Fetal Bovine Serum (Qualified, heat inactivated, Gibco Cat. # 16140-063). The medium is removed by aspiration and the cells are washed with 10 mL of Hank's Balanced Salt solution (Gibco Cat. # 14175-095). The salt solution is removed by aspiration and the cells are trypsinized with 5 mL of trypsin-EDTA (0.05% trypsin, 0.53 mM EDTA-4Na, Gibco Cat. # 25300-070) for 1 min. The trypsin is removed by aspiration and the cells dislodged by tapping. Cell Culture medium (eg, 30 mL for 1:30 split) is immediately added and mixed well to inactivate trypsin. 1 mL of detached cells is added to new culture flasks containing fresh cell culture medium (eg, into 25 mL per T-150 flask), and mixed gently. The cells are incubated at 37° C. in 5% CO2. The medium is changed at 3 to 4 days interval (or as appropriate). The cells grow to confluency (approx. >75%–95%) within 7–8 days. All steps are done under sterile conditions. B. Membrane Preparation: The cells are washed twice gently with Hank's Balanced Salt solution (e.g,. use 10 mL per T-150 flask). The excess is removed and the cells are bathed for 15–30 min. in an enzyme-free Cell Dissociation Buffer (e.g. use 8 mL Hank's Based, Gibco Cat. # 13150-016 per T-150 flask) until the cells are loosened. The contents are transferred to centrifuge tubes (50 mL) kept in an ice bath. All subsequent steps are done at 4° C. The tubes are centrifuged at 300×g for 15 min (1380 rpm on SORVAL, Model RT6000D, using rotor for the 50 mL tubes). The supernatant is discarded and the cells suspended in homogeneizing buffer(10 mM Tris-HCl containing 0.25 M sucrose and 1 mM EDTA, pH 7.4) ensuring that the volume of the buffer is about ten times the volume of the cell pellet. The cells are pooled into a centrifuge tube (50 mL) and homogenized with Polytron at setting 6 for 10 sec. The homogenate is transferred into a Potter-Elvjehm homogenizer and homogenized with 3 strokes. The homogenate is centrifuged at 1500× g for 10 min at 4° C. (3100 rpm using SORVAL, model RT6000D, using the rotor for 50 mL tubes). The pellet is discarded. The supernatant is centrifuged at 100,000×g for 60 min. at 4° C. (Beckman L8-80M ultracentrifuge; spin at 37,500 rpm with rotor type 70 Ti for 50 mL tubes; 38,000 rpm with type 80Ti for 15 mL tubes; or 35,800 rpm with rotor type 45Ti). The supernantant is discarded and the pellet suspended in 3 to 4 mL of Tris buffer (50 mM TRIS-HCl, pH 7.4). The protein content is estimated by the Bradford or Lowry method. The volume of the membrane suspension is adjusted with the membrane buffer (50 mM Tris-HCl containing 0.1% BSA and 0.1 mM PMSF) to give 3.0 mg/mL (or as appropriate) of protein. The membranes are aliquoted and stored at −70° C. C. […]

human vasopressin V1a receptor subtype, sequence (P37288 whole entry): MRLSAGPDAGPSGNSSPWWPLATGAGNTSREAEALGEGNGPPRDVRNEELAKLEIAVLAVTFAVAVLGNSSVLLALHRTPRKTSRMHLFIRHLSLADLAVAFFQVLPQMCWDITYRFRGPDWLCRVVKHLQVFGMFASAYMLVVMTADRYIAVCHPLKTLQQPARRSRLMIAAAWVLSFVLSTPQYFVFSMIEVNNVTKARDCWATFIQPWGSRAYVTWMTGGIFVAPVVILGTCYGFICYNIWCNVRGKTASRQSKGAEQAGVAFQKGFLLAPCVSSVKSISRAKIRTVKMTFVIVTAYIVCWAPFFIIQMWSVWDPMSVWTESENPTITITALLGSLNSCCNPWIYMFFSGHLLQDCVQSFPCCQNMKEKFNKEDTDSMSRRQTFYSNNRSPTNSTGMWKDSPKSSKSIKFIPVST

Row | SMILES | inhibition at 0.1 µM [1] [%] | melting point [°C] | IC50 [1] [µM]
1 | O=C(c1ccc(C2CCCCC2)cc1)N1Cc2ccc(C(=O)C(Cl)(Cl)Cl)n2Cc2ccccc21 [Example 7, 2,2,2-Trichloro-1-[10-(4-cyclohexyl-benzoyl)-10,11-dihydro-5H-pyrrolo[2,1-c][1,4]benzodiazepin-3-yl]-1-ethanone] | 4 | 172 to 174 | 
2 | C/C(=N\C(=O)c1ccc2n1Cc1ccccc1N(C(=O)c1ccc(C3CCCCC3)cc1)C2)N(C)C [Example 18] |  | 128 to 131 | 0.0875
3 | CN(C)NC(=O)c1ccc2n1Cc1ccccc1N(C(=O)c1ccc(C3CCCCC3)cc1)C2 [Example 19, 10-(4-Cyclohexyl-benzoyl)-N′-N′-dimethyl-10,11-dihydro-5H-pyrrolo[2,1-c][1,4]benzodiazepine-3-carbohydrazide] |  | 182 to 183 | 0.88
4 | CN(C)/C=C/C(=O)c1ccc2n1Cc1ccccc1N(C(=O)c1ccc(C3CCCCC3)cc1)C2 [Example 20, (E)-1-[10-(4-Cyclohexyl-benzoyl)-10,11-dihydro-5H-pyrrolo[2,1-c][1,4]benzodiazepin-3-yl]-3-(dimethylamino)-2-propen-1-one] | 21 | 237 to 240 | 
5 | CN1CCN(C(=O)c2ccc3n2Cc2ccccc2N(C(=O)c2ccc(C4CCCCC4)cc2)C3)CC1 [Example 24, [10-(4-Cyclohexyl-benzoyl)-10,11-dihydro-5H-pyrrolo[2,1-c][1,4]benzodiazepin-3-yl](4-methyl-1-piperazinyl)-methanone] |  | 134 to 136 | 0.203

Second part, the molecule after the results:

Row | inhibition at 0.1 µM [1] [%] | melting point [°C] | IC50 [1] [µM] | SMILES
6 |  | 164 to 175 | 0.146 | CC(=NNC(=O)c1ccc2n1Cc1ccccc1N(C(=O)c1ccc(C3CCCCC3)cc1)C2)N(C)C [Example 9, N′-{[10-(4-Cyclohexyl-benzoyl)-10,11-dihydro-5H-pyrrolo[2,1-c][1,4]benzodiazepin-3-yl]carbonyl}-N,N-dimethylethanehydrazonamide]
7 |  | 167 to 190 | 0.366 | CN(C)C=NNC(=O)c1ccc2n1Cc1ccccc1N(C(=O)c1ccc(C3CCCCC3)cc1)C2 [Example 10, N′-{[10-(4-Cyclohexyl-benzoyl)-10,11-dihydro-5H-pyrrolo[2,1-c][1.4]benzodiazepin-3-yl]carbonyl}-N,N-dimethylhydrazonoformamide]
8 |  | 122 to 123 | 0.377 | NC(=O)c1ccc2n1Cc1ccccc1N(C(=O)c1ccc(C3CCCCC3)cc1)C2 [Example 16, 10-(4-Cyclohexyl-benzoyl)-10,11-dihydro-5H-pyrrolo[2,1-c][1,4]benzodiazepin-3-carboxamide]
9 |  | 216 to 218 | 0.306 | CN(C)/C=N/C(=O)c1ccc2n1Cc1ccccc1N(C(=O)c1ccc(C3CCCCC3)cc1)C2 [Example 17]
10 | 6 | 141 to 143 |  | Cc1ccccc1N1CCN(C(=O)c2ccc3n2Cc2ccccc2N(C(=O)c2ccc(C4CCCCC4)cc2)C3)CC1 [Example 27, [10-(4-Cyclohexyl-benzoyl)-10,11-dihydro-5H-pyrrolo[2,1-c][1,4]benzodiazepin-3-yl][4-(2-methylphenyl)-1-piperazinyl]-methanone]
11 | 49 | 133 to 136 |  | CN1CCCN(C(=O)c2ccc3n2Cc2ccccc2N(C(=O)c2ccc(C4CCCCC4)cc2)C3)CC1 [Example 30, [10-(4-Cyclohexyl-benzoyl)-10,11-dihydro-5H-pyrrolo[2,1-c][1,4]benzodiazepin-3-yl](4-methyl-[1,4]-diazepan-1-yl)-methanone]
